Here are results for 25 compounds from ChEMBL document CHEMBL1821680, “Current status and research strategies in tuberculosis drug development” (2011).

The assay concerns Mycobacterium tuberculosis. Kind of assay: Antituberculosis activity against Mycobacterium tuberculosis H37Rv. In kind it is functional.

The structures appear in SMILES notation. Values after ≈ are worked out from the molar mass of the structure shown.

Usually IC90 stands for the concentration at which the effect reaches the 90% level. A high value points to a need for much substance. For the compound `O=S1(=O)C=C(Sc2nc3ccccc3s2)c2ccccc21`, the 90% effect concentration (IC90) is less than 0.1 µg/mL.

Take `O=c1c2ccccc2nc(/C=C/c2ccc([N+](=O)[O-])o2)n1CCCO`: the concentration for an effect of 90% (IC90) is less than 0.1 µg/mL.

In turn, `Cc1cccc(Nc2nc(-c3ccccn3)cs2)n1` came in with a 90% effect concentration (IC90) of less than 0.1 µg/mL.

On to `O=C(Nc1nc(-c2ccccc2)c(-c2ccccc2)o1)c1ccc(F)cc1`, for which the IC90 was less than 0.1 µg/mL.

As to `Cc1ccc2oc(-c3cc(NC(=O)Cc4ccccc4)ccc3Cl)nc2c1`, the IC90 is less than 0.1 µg/mL.

The MIC is the lowest concentration that inhibits growth of the organism. Low readings indicate greater potency, high ones weaker potency. Compound `C[C@@H]1COC2(CCN(c3nc(=O)c4cc(C(F)(F)F)cc([N+](=O)[O-])c4s3)CC2)O1` registered a minimum inhibitory concentration (MIC) of 0.001 µg/mL (≈ 0.00232 µM).

Consider `Cc1sc(N)nc1C(=O)O`, for which the MIC is 0.06 µg/mL (≈ 0.379 µM).

The compound `COC(=O)c1nc(N)sc1Cc1ccccc1` had a minimal inhibitory concentration (MIC) of 0.06 µg/mL (≈ 0.242 µM).

In turn, `FC(F)(F)c1ccccc1Nc1nc(-c2ccccn2)cs1` displayed a concentration for an effect of 90% (IC90) of less than 0.1 µg/mL.

Compound `CC1(CNC(=O)Nc2ccc(C(F)(F)F)cc2)CC2CCC1C2` (stereo not given) yielded an IC90 of less than 0.1 µg/mL.

`CC(C)(C)c1cc(Cl)c(O)c(NC(=S)NC(=O)c2ccc3ccccc3c2)c1` yielded an IC90 of less than 0.1 µg/mL.

The compound `CSc1ncnc2c1ncn2CC(=O)Nc1ccc(C)c(C)c1` came in with an IC90 of less than 0.1 µg/mL.

`O=C(Nc1ccc(F)c(Cl)c1)c1ccc([N+](=O)[O-])o1` had an IC90 of less than 0.1 µg/mL.

Turning to `O=C(Nc1ccc(F)c(Cl)c1)C12CC3CC(CC(C3)C1)C2`, the IC90 was less than 0.1 µg/mL.

Turning to `O=C(CC12CC3CC(CC(C3)C1)C2)Nc1ccc2ccccc2c1`, the IC90 was less than 0.1 µg/mL.

As to `CC(C)(C)c1ccc(C(=O)Nc2nc3ccccc3[nH]2)cc1`, the IC90 was less than 0.1 µg/mL.

Compound `Cc1ccc(C(=O)Nc2ccc([N+](=O)[O-])cc2C)cc1I` yielded an IC90 of less than 0.1 µg/mL.

In turn, `COC(=O)COc1ccc(NC(=O)COc2ccc(C)cc2C)cc1` had an IC90 of less than 0.1 µg/mL.

Consider `Cc1cc([N+](=O)[O-])ccc1NC(=O)c1ccc(-c2ccccc2)cc1`, for which the concentration for an effect of 90% (IC90) is less than 0.1 µg/mL.

In turn, `COc1ccc(CCNC(=O)CCc2ncc(C(C)(C)C)s2)cc1` registered an IC90 of less than 0.1 µg/mL.

The compound `Cc1c(Cl)cccc1NC(=O)OC(C)(OC1CCCCC1)C(=O)O` (stereo not given) gave an IC90 of less than 0.1 µg/mL.

Consider `CSc1ncc(C(=O)Nc2cccc(C(F)(F)F)c2)cn1`, for which the concentration for an effect of 90% (IC90) was less than 0.1 µg/mL.

The compound `Cc1cccnc1Nc1nc(-c2ccccn2)cs1` displayed a 90% effect concentration (IC90) of less than 0.1 µg/mL.

On to `Clc1ccc(Nc2nc(-c3ccccn3)cs2)nc1`, for which the IC90 is less than 0.1 µg/mL.

Take `C[C@H]1COC2(CCN(c3nc(=O)c4cc(C(F)(F)F)cc([N+](=O)[O-])c4s3)CC2)O1` [BTZ-043]: inhibition of growth (MIC) required 0.001 µg/mL (≈ 0.00232 µM).
